This note sets out measurements from patent publication US8455475B2 (Gruenenthal GmbH, priority 2009, dated 2013).

The test addresses T1, rat B1R (bradykinin receptor 1) (Rattus norvegicus, UniProt P97583).
T1 construct: expressed in transfected cells; host or cells: CHO K1 cells
T1 sequence (P97583 1-337): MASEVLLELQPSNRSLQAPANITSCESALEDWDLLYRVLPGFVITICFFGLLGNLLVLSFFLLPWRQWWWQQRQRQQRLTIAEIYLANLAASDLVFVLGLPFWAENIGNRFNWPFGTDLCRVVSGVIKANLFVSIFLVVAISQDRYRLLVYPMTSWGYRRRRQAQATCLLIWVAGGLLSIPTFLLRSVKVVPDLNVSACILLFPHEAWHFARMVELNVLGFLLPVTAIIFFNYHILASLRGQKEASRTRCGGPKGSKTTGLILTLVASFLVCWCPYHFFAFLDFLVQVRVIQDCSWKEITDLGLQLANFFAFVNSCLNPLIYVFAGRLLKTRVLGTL
Put plainly: FLIPR Ca2+ assay (Fluo-4) on CHO K1 cells stably transfected with the B1R gene of the rat (rB1R cells): % inhibition at 10 μM / IC50, agonist Des-Arg9-bradykinin. It counts as cell-based. The conditions noted are these: CHO-K1, rat B1R. An outline of the steps: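 Stable CHO K1 lines, Fluo-4 dye, probenecid-containing buffer. Cpd 10 μM or dose range, 10–20 min, then EC80 agonist (h: Lys-Des-Arg9-BK; r: Des-Arg9-BK). Readout peak FC; % inhibition vs max; IC50 from n=2–3, N≥2.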

As to `O=C(NC1CCc2ccc(C(=O)N3CCC4(CCN(CCCc5cccc(F)c5)CC4)C3)cc21)c1cc(C(F)(F)F)ccc1Cl` (stereo not shown) [IND_CC-691, 2-Chloro-N-[6-[8-[3-(3-fluorophenyl)-propyl]-2,8-diazaspiro[4.5]decane-2-carbonyl]-2,3-dihydro-1H-inden-1-yl]-5-(trifluoromethyl)-benzamide], the inhibition at 10 µM worked out at 95%. `O=C(NC1CCc2ccc(C(=O)N3CCC4(CCN(Cc5ccc6ncccc6c5)CC4)C3)cc21)c1ccccc1Cl` (stereo not shown) [IND_CC-567, 2-Chloro-N-[6-[8-(quinolin-6-yl-methyl)-2,8-diazaspiro[4.5]decane-2-carbonyl]-2,3-dihydro-1H-inden-1-yl]-benzamide]: the inhibition at 10 µM came out at 100%. With `CC(C)(C)CC(=O)N1CCC2(CC1)CCN(C(=O)c1ccc3c(c1)C(NC(=O)c1ccccc1Cl)CC3)CC2` (stereo not shown) [IND_CC-598, 2-Chloro-N-[6-[9-(3,3-dimethyl-butanoyl)-3,9-diazaspiro[5.5]undecane-3-carbonyl]-2,3-dihydro-1H-inden-1-yl]-benzamide], the inhibition at 10 µM turned out to be 96%. As for `CC(C)(C)CC(=O)NC1CCc2ccc(C(=O)N3CCC4(CCN(c5ccncc5)CC4)C3)cc21` (stereo not shown) [IND_CC-374, 3,3-Dimethyl-N-[6-(8-pyridin-4-yl-2,8-diazaspiro[4.5]decane-2-carbonyl)-2,3-dihydro-1H-inden-1-yl]-butyramide], the figure is 103%; as for `O=C(NC1CCc2ccc(C(=O)N3CCC4(CCN(CCc5ccccc5)CC4)C3)cc21)c1cccc(Cl)c1Cl` (stereo not shown) [IND_CC-749, 2,3-Dichloro-N-[6-(8-phenethyl-2,8-diazaspiro[4.5]decane-2-carbonyl)-2,3-dihydro-1H-inden-1-yl]-benzamide], 70%; as for `O=C(NC1CCc2ccc(C(=O)N3CCC4(CCN(Cc5ccc[nH]5)CC4)CC3)cc21)c1cc(Cl)ccc1F` (stereo not shown) [IND_CC-624, 5-Chloro-2-fluoro-N-[6-[9-(1H-pyrrol-2-yl-methyl)-3,9-diazaspiro[5.5]undecane-3-carbonyl]-2,3-dihydro-1H-inden-1-yl]-benzamide], 62%.

Regarding `COc1ccc(C(=O)NC2CCc3ccc(C(=O)N4CCC5(CC4)CCN(c4ccncc4)CC5)cc32)c(Cl)c1` (stereo not shown) [IND_CC-211, 2-Chloro-4-methoxy-N-[6-(9-pyridin-4-yl-3,9-diazaspiro[5.5]undecane-3-carbonyl)-2,3-dihydro-1H-inden-1-yl]-benzamide], the inhibition at 10 µM is 104%. As for `O=C(NC1CCc2ccc(C(=O)N3CCC4(CCN(Cc5ccc[nH]5)CC4)CC3)cc21)c1cc(C(F)(F)F)ccc1Cl` (stereo not shown) [IND_CC-638, 2-Chloro-N-[6-[9-(1H-pyrrol-2-yl-methyl)-3,9-diazaspiro[5.5]undecane-3-carbonyl]-2,3-dihydro-1H-inden-1-yl]-5-(trifluoromethyl)-benzamide], the figure is 80%; as for `O=C(NC1CCc2ccc(C(=O)N3CCC4(CCN(Cc5ccc(F)cc5F)CC4)CC3)cc21)c1c(F)cccc1Cl` (stereo not shown) [IND_CC-791, 2-Chloro-N-[6-[9-[(2,4-difluoro-phenyl)-methyl]-3,9-diazaspiro[5.5]undecane-3-carbonyl]-2,3-dihydro-1H-inden-1-yl]-6-fluoro-benzamide], 91%.

For `O=C(NC1CCc2ccc(C(=O)N3CCC4(CCN(C(=O)Nc5c(Cl)cccc5Cl)CC4)CC3)cc21)c1ccccc1Cl` (stereo not shown) [IND_CC-709, 3-[3-[(2-Chloro-benzoyl)amino]-2,3-dihydro-1H-indene-5-carbonyl]-N-(2,6-dichloro-phenyl)-3,9-diazaspiro[5.5]undecane-9-carboxylic acid amide], the inhibition at 10 µM came out at 91%.

For the compound `O=C(NC1CCc2ccc(C(=O)N3CCC4(CCN(c5ccncc5)CC4)C3)cc21)c1cnccn1` (stereo not shown) [IND_CC-398, N-[6-(8-Pyridin-4-yl-2,8-diazaspiro[4.5]decane-2-carbonyl)-2,3-dihydro-1H-inden-1-yl]-pyrazine-2-carboxylic acid amide], the inhibition at 10 µM amounted to 88%. As for `O=C(NC1CCc2ccc(C(=O)N3CCC4(CCN(CCc5ccccc5)CC4)CC3)cc21)c1cc(C(F)(F)F)ccc1Cl` (stereo not shown) [IND_CC-701, 2-Chloro-N-[6-(9-phenethyl-3,9-diazaspiro[5.5]undecane-3-carbonyl)-2,3-dihydro-1H-inden-1-yl]-5-(trifluoromethyl)-benzamide], the figure is 96%; as for `Cn1nnc2cc(CN3CCC4(CC3)CCN(C(=O)c3ccc5c(c3)C(NC(=O)c3cccc(Cl)c3Cl)CC5)CC4)ccc21` (stereo not shown) [IND_CC-756, 2,3-Dichloro-N-[6-[9-[(1-methyl-1H-benzotriazol-5-yl)-methyl]-3,9-diazaspiro[5.5]undecane-3-carbonyl]-2,3-dihydro-1H-inden-1-yl]-benzamide], 104%. Next, `O=C(NC1CCc2ccc(C(=O)N3CCC4(CCN(Cc5csnn5)CC4)CC3)cc21)c1cc(C(F)(F)F)ccc1Cl` (stereo not shown) [IND_CC-663, 2-Chloro-N-[6-[9-([1,2,3]thiadiazol-4-yl-methyl)-3,9-diazaspiro[5.5]undecane-3-carbonyl]-2,3-dihydro-1H-inden-1-yl]-5-(trifluoromethyl)-benzamide]: 85%; `N#Cc1ccc(CN2CCC3(CC2)CCN(C(=O)c2ccc4c(c2)C(NC(=O)c2ccccc2Cl)CC4)C3)cc1` (stereo not shown) [IND_CC-561, 2-Chloro-N-[6-[8-[(4-cyano-phenyl)-methyl]-2,8-diazaspiro[4.5]decane-2-carbonyl]-2,3-dihydro-1H-inden-1-yl]-benzamide]: 85%. As for `O=C(NC1CCc2ccc(C(=O)N3CCC4(CCN(Cc5ccccn5)CC4)CC3)cc21)c1c(F)cccc1Cl` (stereo not shown) [IND_CC-784, 2-Chloro-6-fluoro-N-[6-[9-(pyridin-2-yl-methyl)-3,9-diazaspiro[5.5]undecane-3-carbonyl]-2,3-dihydro-1H-inden-1-yl]-benzamide], the figure is 99%; as for `Cc1noc(C)c1CN1CCC2(CC1)CCN(C(=O)c1ccc3c(c1)C(NC(=O)c1c(F)cccc1Cl)CC3)CC2` (stereo not shown) [IND_CC-799, 2-Chloro-N-[6-[9-[(3,5-dimethyl-isoxazol-4-yl)-methyl]-3,9-diazaspiro-[5.5]undecane-3-carbonyl]-2,3-dihydro-1H-inden-1-yl]-6-fluoro-benzamide], 52%. For `CN(C(=O)C1CCC1)C1CCc2ccc(C(=O)N3CCC4(CC3)CCN(c3ccncc3)CC4)cc21` (stereo not shown) [IND_CC-414, N-Methyl-N-[6-(9-pyridin-4-yl-3,9-diazaspiro[5.5]undecane-3-carbonyl)-2,3-dihydro-1H-inden-1-yl]-cyclobutanecarboxylic acid amide], the inhibition at 10 µM is 102%. As for `COc1cccc(F)c1CN1CCC2(CC1)CCN(C(=O)c1ccc3c(c1)C(NC(=O)c1ccccc1Cl)CC3)C2` (stereo not shown) [IND_CC-546, 2-Chloro-N-[6-[8-[(2-fluoro-6-methoxy-phenyl)-methyl]-2,8-diazaspiro[4.5]decane-2-carbonyl]-2,3-dihydro-1H-inden-1-yl]-benzamide], the figure is 99%; as for `CN(C1CCc2ccc(C(=O)N3CCC4(CC3)CCN(c3ccncc3)CC4)cc21)S(=O)(=O)c1c(Cl)cc(C(F)(F)F)cc1Cl` (stereo not shown) [IND_CC-403, 2,6-Dichloro-N-methyl-N-[6-(9-pyridin-4-yl-3,9-diazaspiro[5.5]undecane-3-carbonyl)-2,3-dihydro-1H-inden-1-yl]-4-(trifluoromethyl)-benzenesulfonic acid amide], 97%; as for `CN(C(=O)c1ccccc1Cl)C1CCc2ccc(C(=O)N3CCC4(CCN(C(=O)Cc5ccc(Cl)cc5)CC4)C3)cc21` (stereo not shown) [IND_CC-592, 2-Chloro-N-[6-[8-[2-(4-chlorophenyl)-acetyl]-2,8-diazaspiro[4.5]decane-2-carbonyl]-2,3-dihydro-1H-inden-1-yl]-N-methyl-benzamide], 85%. Next, `O=C(NC1CCc2ccc(C(=O)N3CCC4(CCN(c5ccncc5)CC4)C3)cc21)c1ccccc1F` (stereo not shown) [IND_CC-402, 2-Fluoro-N-[6-(8-pyridin-4-yl-2,8-diazaspiro[4.5]decane-2-carbonyl)-2,3-dihydro-1H-inden-1-yl]-benzamide]: 102%; `CCn1cc(CN2CCC3(CC2)CCN(C(=O)c2ccc4c(c2)C(NC(=O)c2cccc(Cl)c2Cl)CC4)CC3)c(C)n1` (stereo not shown) [IND_CC-752, 2,3-Dichloro-N-[6-[9-[(1-ethyl-3-methyl-1H-pyrazol-4-yl)-methyl]-3,9-diazaspiro[5.5]undecane-3-carbonyl]-2,3-dihydro-1H-inden-1-yl]-benzamide]: 69%; `COc1ccc(CN2CCC3(CC2)CCN(C(=O)c2ccc4c(c2)C(NC(=O)c2cc(C(F)(F)F)ccc2Cl)CC4)C3)cc1F` (stereo not shown) [IND_CC-636, 2-Chloro-N-[6-[8-[(3-fluoro-4-methoxy-phenyl)-methyl]-2,8-diazaspiro[4.5]-decane-2-carbonyl]-2,3-dihydro-1H-inden-1-yl]-5-(trifluoromethyl)-benzamide]: 79%.

For the compound `CN(C1CCc2ccc(C(=O)N3CCC4(CC3)CCN(c3ccncc3)CC4)cc21)S(=O)(=O)c1cccc(C(F)(F)F)c1` (stereo not shown) [IND_CC-327, N-Methyl-N-[6-(9-pyridin-4-yl-3,9-diazaspiro[5.5]undecane-3-carbonyl)-2,3-dihydro-1H-inden-1-yl]-3-(trifluoromethyl)-benzenesulfonic acid amide], the inhibition at 10 µM was found to be 101%.

What is called inhibition is the relative decrease from the control value, in per cent.
